Data taken from patent publication US20220402873A1, “NOVEL P62 LIGAND COMPOUND, AND COMPOSITION CONTAINING SAME FOR PREVENTING, AMELIORATING, OR TREATING PROTEINOPATHIES” (AUTOTAC INC., priority 2019, published 2022).

Tests used:
Type in all cases: cell-based
p62 protein [1] = target: T1, p62 protein (Homo sapiens, UniProt Q13501); test: Oligomerization activity of p62 protein by immunoblotting; design: endogenous in cells; conditions: HEK293 cell line lysate treated with test compounds for 2 hours at room temperature
T1 sequence (Q13501 whole entry): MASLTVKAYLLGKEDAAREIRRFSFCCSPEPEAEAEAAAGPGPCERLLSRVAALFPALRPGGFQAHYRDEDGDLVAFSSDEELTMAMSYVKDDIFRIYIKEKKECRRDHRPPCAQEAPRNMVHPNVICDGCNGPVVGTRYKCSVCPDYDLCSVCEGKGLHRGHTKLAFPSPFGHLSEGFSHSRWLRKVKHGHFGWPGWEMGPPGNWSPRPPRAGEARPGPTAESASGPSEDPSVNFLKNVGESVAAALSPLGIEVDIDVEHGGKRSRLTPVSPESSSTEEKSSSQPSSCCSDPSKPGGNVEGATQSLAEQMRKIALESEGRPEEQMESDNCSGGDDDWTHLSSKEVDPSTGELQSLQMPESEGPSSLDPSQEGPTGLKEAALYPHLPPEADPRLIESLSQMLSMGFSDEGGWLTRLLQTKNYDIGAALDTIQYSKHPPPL
Excerpt: In order to evaluate the oligomerization activity efficacy of p62 protein of the compounds (Examples 1-20), HEK293 cell line, which is human embryonic kidney-derived cell, was collected. As representative compounds of the present compounds, the compounds of Examples 1-20 (Example 1 (ATB10048), Example 2 (ATB10047), Example 3 (ATB10049), Example 4 (ATB10051), Example 5 (ATB10050), Example 6 (ATB10056), Example 7 (ATB10052), Example 8 (ATB10057), Example 9 (ATB10060), Example 10 (ATB10072), Example 11 (ATB10075), Example 12 (ATB10078), Example 13 (ATB10079), Example 14 (ATB10080), Example 15 (ATB10081), Example 16 (ATB10087), Example 17 (ATB10096), Example 18 (ATB10097), Example 19 (ATB10099) and Example 20 (ATB10100)) were selected, and in order to measure the activation and oligomerization of the p62 protein in cells according to the treatment with these selected representative compounds, each cell was dispensed into a 100 phi dish. The cells were collected after additional culture for 24 hours so that the cells were completely attached to the surface of the plate, and 100 ul of lysis buffer (20 mM Tris (pH 7.4), 150 mM NaCl, 1% Triton X-100, 2 mM NaF, 2 mM EDTA, 2 mM beta-glycerophosphate, 5 mM sodium orthovanadate, 1 mM PMSF, leupeptin, aproteinin) was injected to each sample, and the cells were lysed. Based on the measured total protein concentration, each sample was treated with the test compounds for 2 hours at room temperature, and then a sample buffer was added and reacted at 95° C. for 10 minutes. 25 ul was taken from the samples after the reaction was completed and dispensed into each well of an acrylamide gel, and immunoblotting was performed.

p62 protein [2] = target: T1, p62 protein; test: Activity of p62 protein and delivery of ubiquitinated substrate proteins to autophagy by immunofluorescence staining (p62, FK2) and confocal microscopy; design: endogenous in cells; host or cells: HeLa; conditions: Hela cell line, 1 uM, 6 hours
Procedure: Immunofluorescence staining was performed using p62 and FK2 as markers to determine the level of the activity of p62 protein of the compounds (Examples 1-20). In order to determine the level of p62 activity and autophagy activity by the novel p62 ligand and its isomers in the cultured cells, the Hela cell line derived from cervical cancer patients was treated with a novel p62 ligand compound (Example 1 (ATB10048), Example 2 (ATB10047), Example 3 (ATB10049), Example 5 (ATB10050), Example 4 (ATB10051), Example 7 (ATB10052), Example 6 (ATB10056), Example 8 (ATB10057), Example 9 (ATB10060), Example 10 (ATB10072), Example 11 (ATB10075), Example 12 (ATB10078), […], Example 14 (ATB10080), Example 15 (ATB10081), Example 16 (ATB10087)), Example 17 (ATB0096), Example 18 (ATB10097), Example 19 (ATB10099) and Example 20 (ATB10100)) and cultured, and then the level of puncta expression and location of FK2, which was a marker of the protein to be delivered to and degraded in the autophagy through the mediation of the intracellular ubiquitinated p62, and the puncta local co-existence with p62 were observed.
For immunofluorescence staining, a cover glass was placed on a 24-well plate, cells were dispensed and cultured for 24 hours, and then 1 uM of the novel p62 ligand according to the present invention was treated. After culturing for an additional 6 hours for the action of the compound, the medium was removed, and the cells were fixed using formaldehyde at room temperature. In order to prevent non-specific staining, the cells were reacted with a blocking solution at room temperature for 1 hour, and then the LC3 antibody diluted at a certain ratio was treated with a blocking solution and then reacted at room temperature for 1 hour. After the antibody-treated cells were washed 3 times with PBS, the goat-derived secondary antibody was diluted at a certain ratio using the blocking solution, and then reacted at room temperature for 30 minutes. After further washing with PBS three times, and DAPI staining was performed for intracellular nuclear staining. Then, the level of expression of p62 or FK2, the level of intracellular puncta formation, and the level of coexistence in the cells were observed by a confocal microscope.

p62 protein [3] = target: T1, p62 protein; test: Activity of p62 protein and delivery to autophagosome by immunofluorescence staining (p62, LC3-GFP) and confocal microscopy; design: endogenous in cells; host or cells: HeLa; conditions: Hela-LC3-GFP cell line, 5 uM, 24 hours
Procedure: Immunofluorescence staining was performed using p62 and FK2 marker to determine the level of activity of p62 protein of the compounds (Examples 1-20). In order to determine the level of p62 activity and autophagy activity by the novel p62 ligand and its isomers in cultured cells, Hela-LC3-GFP cell line derived from cervical cancer patients was treated with the novel p62 ligand compounds (Example 2 (ATB10047), Example 3 (ATB10049), Example 4 (ATB10051), Example 6 (ATB10056), Example 9 (ATB10060), Example 12 (ATB10078), Example 16 (ATB10087) and Example (ATB10097)) and cultured. Then, the level of puncta expression and location of LC3-GFP, which is an essential autophagosome marker for macroautophagy, and the puncta local co-existence of p62 were observed.
For immunofluorescence staining, a cover glass was placed on a 24-well plate, cells were dispensed and cultured for 24 hours, and then treated with 5 uM of the novel p62 ligand according to the present invention. The cells were further cultured for an additional 24 hours for the action of the compound, the medium was removed, and the cells were fixed using formaldehyde at room temperature. In order to prevent non-specific staining, the cells were reacted with a blocking solution at room temperature for 1 hour, and then the LC3 antibody diluted at a certain ratio was treated with the blocking solution and then reacted at room temperature for 1 hour. After the antibody-treated cells were washed 3 times with PBS, the goat-derived secondary antibody was diluted at a certain ratio using the blocking solution, and then reacted at room temperature for 30 minutes. The cells were washed again with PBS three times and subjected to DAPI staining for intracellular nuclear staining, and then the level of expression of p62 or LC3, intracellular puncta formation, and intracellular coexistence level were observed by a confocal microscope.

Row | SMILES | p62 protein oligomerization activity (immunoblot, FIGS. 2a to 2d) (p62 protein [1]) | delivery of ubiquitinated proteins marked with FK2 to autophagosome mediated by p62 (FIGS. 3a to 3d) (p62 protein [2]) | targeting of activated, oligomerized p62 protein to the autophagosome (FIG. 4) (p62 protein [3])
1 | O=C(CO)NCc1cccc(OCc2ccccc2)n1 [Example 1] | increasing the p62 protein oligomerization activity | show the efficacy of delivering the proteins to be delivered to and degraded by autophagosome | 
2 | OCCNCc1cccc(OCc2ccccc2)n1 [Example 2, 2-(((6-(benzyloxy)pyridin-2-yl)methyl)amino)ethan-1-ol] | increasing the p62 protein oligomerization activity | show the efficacy of delivering the proteins to be delivered to and degraded by autophagosome | show the efficacy of targeting them to the autophagosome
3 | O=C(CO)NCc1ccc(OCc2ccccc2)cn1 [Example 3, N-((5-(benzyloxy)pyridin-2-yl)methyl)-2-hydroxyacetamide] | increasing the p62 protein oligomerization activity | show the efficacy of delivering the proteins to be delivered to and degraded by autophagosome | show the efficacy of targeting them to the autophagosome
4 | OCCNCc1cc(OCc2ccccc2)ccn1 [Example 5, 2-(((4-(benzyloxy)pyridin-2-yl)methyl)amino)ethan-1-ol] | increasing the p62 protein oligomerization activity | show the efficacy of delivering the proteins to be delivered to and degraded by autophagosome | 
5 | O=C(CO)NCc1cc(OCc2ccccc2)c(OCc2ccccc2)cn1 [Example 7, N-((4,5-bis(benzyloxy)pyridin-2-yl)methyl)-2-hydroxyacetamide] | increasing the p62 protein oligomerization activity | show the efficacy of delivering the proteins to be delivered to and degraded by autophagosome | 
6 | OCCNCc1cc(OCc2ccccc2)c(OCc2ccccc2)cn1 [Example 8, 2-(((4,5-bis(benzyloxy)pyridin-2-yl)methyl)amino)ethan-1-ol] | increasing the p62 protein oligomerization activity | show the efficacy of delivering the proteins to be delivered to and degraded by autophagosome | 
7 | OCCNC[C@@H](O)COc1cc(OCc2ccccc2)ccn1 [Example 10, (R)-1-((4-(benzyloxy)pyridin-2-yl)oxy)-3-((2-hydroxyethyl)amino)propan-2-ol] | increasing the p62 protein oligomerization activity | show the efficacy of delivering the proteins to be delivered to and degraded by autophagosome | 
8 | COc1ccc(OC[C@H](O)CNCCO)nc1OCc1ccccc1 [Example 11, (R)-1-((6-(benzyloxy)-5-methoxypyridin-2-yl)oxy)-3-((2-hydroxyethyl)amino)propan-2-ol] | increasing the p62 protein oligomerization activity | show the efficacy of delivering the proteins to be delivered to and degraded by autophagosome | 
9 | OCCNC[C@@H](O)COc1cncc(OCc2ccccc2)c1 [Example 13, (R)-1-((5-(benzyloxy)pyridin-3-yl)oxy)-3-((2-hydroxyethyl)amino)propan-2-ol] | increasing the p62 protein oligomerization activity | show the efficacy of delivering the proteins to be delivered to and degraded by autophagosome | 
10 | OCCNC[C@@H](O)COc1cccc(NCc2ccccc2)n1 [Example 14, (R)-1-((6-(benzylamino)pyridin-2-yl)oxy)-3-((2-hydroxyethyl)amino)propan-2-ol] | increasing the p62 protein oligomerization activity | show the efficacy of delivering the proteins to be delivered to and degraded by autophagosome | 
11 | OCCNC[C@@H](O)CNc1cccc(OCc2ccccc2)n1 [Example 15, (R)-1-((6-(benzyloxy)pyridin-2-yl)amino)-3-((2-hydroxyethyl)amino)propan-2-ol] | increasing the p62 protein oligomerization activity | show the efficacy of delivering the proteins to be delivered to and degraded by autophagosome | 
12 | OCCNCc1ccc(OCc2ccccc2)s1 [Example 17, 2-(((5-(benzyloxy)thiophen-2-yl)methyl)amino)ethan-1-ol] | increasing the p62 protein oligomerization activity | show the efficacy of delivering the proteins to be delivered to and degraded by autophagosome | 
13 | O=C(CO)NCc1ccc(CCc2ccccc2)o1 [Example 19, 2-hydroxy-N-((5-phenethylfuran-2-yl)methyl) acetamide] | increasing the p62 protein oligomerization activity | show the efficacy of delivering the proteins to be delivered to and degraded by autophagosome | 
14 | O=C(O)CNCc1ccc(OCCc2ccccc2)s1 [Example 20, ((5-phenethoxythiophen-2-yl)methyl)glycine] | increasing the p62 protein oligomerization activity | show the efficacy of delivering the proteins to be delivered to and degraded by autophagosome | 
